The record followed here is patent US8344181B2, “N-2 adamantanyl-2-phenoxy-acetamide derivatives as 11-beta hydroxysteroid dehydrogenase inhibitors” (Janssen Pharmaceutica N.V., priority 2004, dated 2013).

In one test the target is T1, 11β-HSD1 (Mus musculus, UniProt P50172).
T1 construct: endogenous in cells; host or cells: 3T3-L1 (ATCC-CL-173), differentiated into adipocytes
Nature of the test: Cellular assay of 11β-HSD1 activity in differentiated 3T3-L1 cells. It counts as cell-based. The following applies: 4 hour pre-incubation, 10^-5M to 10^-10M, read-out: HSD1 cellular 3T3-L1 Score. The procedure: The effects on 11β-HSD1 activity was measured in differentiated 3T3-L1 cells and rat hepatocytes.
Mouse fibroblast 3T3-L1 cells (ATCC-CL-173) were seeded at a density of 16500 cells/ml in 12 well plates and grown for 7 days in DMEM medium (supplemented with 10% heat inactivated foetal calf serum, 2 mM glutamine and 25 mg gentamycin) at 37° C. in a humidified 5% CO2 atmosphere. Medium was refreshed twice a week. Fibroblasts were differentiated into adipocytes at 37° C. in a 5% CO2 humidified atmosphere in growth medium containing 2 μg/ml insulin, 55 μg/ml IBMX and 39.2 μg/ml dexamethasone.
Primary hepatocytes from male rats were seeded on normal Falcon 12 well plates at a density of 250000 cells/well and incubated for 16 hours at 37° C. in a 5% CO2 humidified atmosphere in DMEM-HAM's F12 medium containing 5% Nu-serum, 100 U/ml penicillin, 100 μg/ml streptomycin, 0.25 μg/ml amphotericin B, 50 μg/ml gentamycin sulfate, 5 μg/ml insulin and 392 ng/ml dexamethasone. Following a 4 hour pre-incubation with test compound, 0.5 μCi ^3H-cortisone or dehydrocorticosterone, was added to the 3T3-L1 cultures. One hour later, the medium was extracted on Extrelut^3-columns with 15 ml diethyl ether and the extract was analysed by HPLC as described above. The effects of JNJ-compounds on rat hepatocyte HSD1 activity was measured after an incubation period of 90 minutes with 0.5 μCi^3H-dehydrocorticosterone. Corticosterone formation was analysed by HPLC.
(§1) As for the enzymatic assays, the compounds to be tested were taken from a stock solution and tested at a final concentration ranging from 10^−5M to 10^−10M. From the thus obtained dose response curves, the pIC50 value was calculated and scored as follows; Score 1=pIC50 value<5, Score 2=pIC50 value in the range of 5 to 6, Score 3=pIC50 value>6. (in this table NT stands for Not Tested).

For another test, the target named is T2, 11β-HSD2 (Homo sapiens, UniProt P80365).
T2 construct: endogenous in cells; host or cells: HepG2 (ATCC HB-8065)
T2 sequence (P80365 1-405): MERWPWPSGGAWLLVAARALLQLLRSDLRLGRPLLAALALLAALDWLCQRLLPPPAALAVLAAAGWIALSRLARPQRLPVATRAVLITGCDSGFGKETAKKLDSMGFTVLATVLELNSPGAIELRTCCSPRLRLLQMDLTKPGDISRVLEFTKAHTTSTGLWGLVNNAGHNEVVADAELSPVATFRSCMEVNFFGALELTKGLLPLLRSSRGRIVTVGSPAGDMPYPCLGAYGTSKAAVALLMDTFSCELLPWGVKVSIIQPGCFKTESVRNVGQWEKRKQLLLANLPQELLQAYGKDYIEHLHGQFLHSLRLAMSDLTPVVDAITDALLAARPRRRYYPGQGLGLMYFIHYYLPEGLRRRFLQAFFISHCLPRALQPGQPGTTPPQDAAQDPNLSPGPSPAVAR
In words: Cellular assay of 11β-HSD2 activity in HepG2 cells. The format is cell-based. The settings on record: 4 hour pre-incubation, 10^-5M to 10^-10M, read-out: HSD2 cellular HepG2 Score. The procedure:
The effects on 11β-HSD2 activity was studied in HepG2 and LCC-PK1-cells HepG2-cells (ATCC HB-8065) were seeded in 12 well plates at a density of 100,000 cells/ml and grown at 37° C. in a humidified 5% CO2 atmosphere in MEM-Rega-3 medium supplemented with 10% heat inactivated foetal calf serum, 2 mM L-glutamine and sodium bicarbonate). Medium was refreshed twice a week.
Following a 4 hour pre-incubation with test compound, 0.5 μCi ^3H-cortisol or corticosterone, was added to the cultures. One hour later, the medium was extracted on Extrelut^3-columns with 15 ml diethyl ether and the extract was analysed by HPLC as described above.
as §1

T1 sequence (P50172 whole entry): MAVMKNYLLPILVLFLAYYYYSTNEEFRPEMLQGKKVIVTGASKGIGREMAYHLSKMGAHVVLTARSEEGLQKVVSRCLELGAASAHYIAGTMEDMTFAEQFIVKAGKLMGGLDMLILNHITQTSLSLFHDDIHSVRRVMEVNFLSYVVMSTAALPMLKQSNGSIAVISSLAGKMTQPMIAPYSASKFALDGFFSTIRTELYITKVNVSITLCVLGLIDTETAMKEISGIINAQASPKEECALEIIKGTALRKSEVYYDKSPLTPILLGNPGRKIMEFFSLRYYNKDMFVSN

Consider `Cc1ccc(OC(C)(C)C(=O)N[C@H]2[C@@H]3CC4C[C@H]2C[C@](OCc2ccccc2)(C4)C3)cc1` [Compound 52], for which the IC50 at 11β-HSD1 is less than 1000 nM; at 11β-HSD2 it was 1 to 10 µM.

On to `CC(C)(Oc1cccc(C(F)(F)F)c1Cl)C(=O)N[C@H]1[C@@H]2CC3C[C@H]1C[C@](N)(C3)C2` [Compound 100], for which, at 11β-HSD1, the IC50 is less than 1000 nM.

For `Cc1ccc(NC(C)(C)C(=O)N[C@H]2[C@@H]3CC4C[C@H]2C[C@](F)(C4)C3)cc1` [Compound 62], the IC50 on 11β-HSD1 was less than 1000 nM; on 11β-HSD2, more than 10 µM.

As to `CN(C)CCCO[C@@]12CC3C[C@H](C1)[C@H](NC(=O)C(C)(C)Oc1cccc(Cl)c1)[C@@H](C3)C2` [Compound 44], the results for the IC50 on 11β-HSD1 and at 11β-HSD2 were less than 1000 nM and 1 to 10 µM, respectively.

`Cc1cc(Cl)ccc1OC(C)(C)C(=O)N[C@H]1[C@@H]2CC3C[C@H]1C[C@](NC(=O)CN(C)C)(C3)C2` [Compound 72]: the IC50 on 11β-HSD1 was less than 1000 nM; on 11β-HSD2, 1 to 10 µM.

Turning to `CCC(=O)N[C@@]12CC3C[C@H](C1)[C@H](NC(=O)C(C)(C)Oc1ccc(Cl)cc1C)[C@@H](C3)C2` [Compound 63], the IC50 at 11β-HSD1 was less than 1000 nM; at 11β-HSD2, less than 1 µM.

In the case of `COc1ccc(NC(C)(C)C(=O)N[C@H]2[C@@H]3CC4C[C@H]2C[C@](O)(C4)C3)cc1` [Compound 58], the IC50 at 11β-HSD1 is less than 1000 nM; at 11β-HSD2, more than 10 µM.

For `CC(C)(Nc1cccc(C(=O)O)c1)C(=O)N[C@H]1[C@@H]2CC3C[C@H]1C[C@](F)(C3)C2` [Compound 82], the IC50 on 11β-HSD1 lay within 1000 to 10000 nM.

Turning to `COc1cccc(NC(C)(C)C(=O)N[C@H]2[C@@H]3CC4C[C@H]2C[C@](NC(C)=O)(C4)C3)c1` [Compound 66], the IC50 on 11β-HSD1 was less than 1000 nM; on 11β-HSD2, 1 to 10 µM.

For `COC(=O)c1ccc(NC(C)(C)C(=O)NC2[C@@H]3CC4C[C@H]2C[C@](F)(C4)C3)cc1` (stereo partly shown) [Compound 96], the IC50 on 11β-HSD1 is 1000 to 10000 nM.

Take `Cc1cc(Cl)ccc1OC(C)(C)C(=O)N[C@H]1[C@@H]2CC3C[C@H]1C[C@](NS(=O)(=O)N(C)C)(C3)C2` [Compound 30]: the IC50 on 11β-HSD1 was less than 1000 nM; on 11β-HSD2 it was 1 to 10 µM.

With `CC(=O)N[C@@]12CC3C[C@H](C1)C(NC(=O)C(C)(C)Nc1cccc(C(=O)O)c1)[C@@H](C3)C2` (stereo partly shown) [Compound 97], at 11β-HSD1, the IC50 is more than 10000 nM.

Turning to `CC(C)(Nc1cccc(C(=O)O)c1)C(=O)N[C@H]1[C@@H]2CC3C[C@H]1C[C@](O)(C3)C2` [Compound 86], the IC50 at 11β-HSD1 lay in the range of 1000 to 10000 nM.

Consider `CC(C)(Oc1cc(C(F)(F)F)ccc1Cl)C(=O)N[C@H]1[C@@H]2CC3C[C@H]1C[C@](N)(C3)C2` [Compound 101], for which, on 11β-HSD1, the IC50 is less than 1000 nM.

In the case of `COc1cc(F)ccc1OC(C)(C)C(=O)N[C@H]1[C@@H]2CC3C[C@H]1C[C@](N)(C3)C2` [Compound 105], on 11β-HSD1, the IC50 was less than 1000 nM.

In the case of `CC(C)(Oc1ccccc1Cl)C(=O)N[C@H]1[C@@H]2CC3C[C@H]1C[C@](N)(C3)C2` [Compound 99], the IC50 on 11β-HSD1 is less than 1000 nM.

In the case of `CC(C)(Oc1cccc(Br)c1)C(=O)N[C@H]1[C@@H]2CC3C[C@H]1C[C@](NC(=O)OCCCl)(C3)C2` [Compound 98], the IC50 on 11β-HSD1 was less than 1000 nM.

With `Cc1ccccc1OC(C)(C)C(=O)N[C@H]1[C@@H]2CC3C[C@H]1C[C@](N)(C3)C2` [Compound 103], the IC50 at 11β-HSD1 is less than 1000 nM.

For `CC(C)(C(=O)N[C@H]1[C@@H]2CC3C[C@H]1C[C@](O)(C3)C2)[S+]([O-])c1ccc(Cl)cc1` (stereo partly shown) [Compound 5], the IC50 at 11β-HSD1 was less than 1000 nM.

Regarding `COC(=O)c1ccc(NC(C)(C)C(=O)N[C@H]2[C@@H]3CC4C[C@H]2C[C@](O)(C4)C3)cc1` [Compound 79], the IC50 at 11β-HSD1 was less than 1000 nM.

`Cc1cc(Cl)ccc1OC(C)(C)C(=O)N[C@H]1[C@@H]2CC3C[C@H]1C[C@](NC(=O)NC(C)(C)C)(C3)C2` [Compound 71]: the IC50 on 11β-HSD1 lay within 1000 to 10000 nM.

For the molecule `CC(C)(Oc1ccccc1C(F)(F)F)C(=O)N[C@H]1[C@@H]2CC3C[C@H]1C[C@](N)(C3)C2` [Compound 102], at 11β-HSD1, the IC50 was less than 1000 nM.

For `COC(=O)c1cccc(NC(C)(C)C(=O)N[C@H]2[C@@H]3CC4C[C@H]2C[C@](F)(C4)C3)c1` [Compound 78], at 11β-HSD1, the IC50 was less than 1000 nM.
